{
  "source": "patent US20260199299A1",
  "about": "“BETA CARBOLINES AS TOPICAL ANTI-INFLAMMATORY AGENTS FOR APPLICATION TO MUCOUS MEMBRANES” (President and Fellows of Harvard College, priority 2022, published 2026)",
  "tested_on": "NFκB",
  "test": "NFκB induction in primary monocytes (FIG. 9A-9C)",
  "format": "cell-based",
  "data": [
    {"smiles": "OCc1ccc(-c2nccc3c2[nH]c2ccccc23)o1", "note": "[Compound 8]", "values": [
      {"measurement": "suppression of NFκB induction in primary monocytes", "result": "suppression of NFκB induction"}
    ]}
  ]
}
